According to paper PMC9459403, “New inhibitors of cathepsin V impair tumor cell proliferation and elastin degradation and increase immune cell cytotoxicity” (Computational and Structural Biotechnology Journal, 2022):
Entries after “also recorded” stand apart in the source; their conditions may differ. Marks after values point to notes of the source that are not given here. Where a SMILES comes first, the peptide text is derived from it. [ ]: non-standard residue; d: D form. The star is where a group is joined. Sta = CC(C)C[C@H](N)[C@@H](O)CC(=O)O; Isovaleryl = CC(C)CC(=O)*

How the values were obtained:
[1] = system: MCF7 cells; experiment: Proliferation assay (CFSE-labeled cells, flow cytometry); format: cell-based, human; settings: 72 h; E-64d 10 μM, pepstatin 20 μM, LHVS 10 nM, CLIK-148 1 μM
Experimental: To assess the effect of cathepsin V inhibitors on cell proliferation, MCF7 cells were fluorescently labeled with carboxyfluorescein succinimidyl ester (CFSE; ImmunoChemistry Technologies, Bloomington, MN, USA) in PBS for 15 min at room temperature according to the manufacturer’s instructions. Cells were washed with PBS, resuspended in complete medium, seeded (at 4 × 10^4 cells/well) into 24-well plates, and allowed to adhere overnight. Cells were then treated with the following inhibitors: compound 7 (10 μM), E-64d (10 μM), CLIK-148 (1 μM), LHVS (10 nM), pepstatin (20 μM), their combinations, or DMSO (0.1 %) in 500 μL of medium for 72 h at 37 °C. To prepare cells for flow cytometry, cells were detached and transferred to round-bottomed polystyrene tubes and washed with PBS. Before measurement, 7-aminoactinomycin D (7-AAD; ImmunoChemistry Technologies, Bloomington, MN, USA) was added according to the manufacturer’s instructions to exclude dead cells. Therefore, the green fluorescence arising from CFSE was monitored only for viable cells. The measurement was performed using a FACSCalibur instrument (BD Biosciences, San Jose, CA, USA).

[2] = system: U-937-derived macrophages; experiment: Intracellular elastin-FITC degradation; format: cell-based, human; settings: 24 h; for effect on degradation of elastin-FITC compared to control cells: CLIK-148 1 μM, LHVS 10 nM; for decrease of elastin-FITC degradation: 10 μM, vs DMSO
Experimental: To evaluate the effect of the inhibitors on the elastolytic activity of cathepsin V, we assessed the intracellular degradation of elastin-FITC, a soluble bovine neck ligament elastin that is heavily labeled with FITC such that the fluorescence of the conjugate is quenched. Upon proteolysis, fluorescence is recovered and can be detected. U-937 cells, differentiated into macrophage-like cells, were seeded (at 1 × 10^5 cells/well) into 24-well plates with 500 μL of medium supplemented with 50 nM PMA. Inhibitors or DMSO (0.1 %) and elastin-FITC (10 μg/mL; AnaSpec, Fermont, CA, USA) were added to the medium and incubated for 24 h at 37 °C. Cells were detached and washed with PBS, and propidium iodide (BD Bioscience) was added to exclude dead cells. Therefore, green fluorescence arising from elastin-FITC degradation was monitored only for viable cells. The measurement was performed using a FACSCalibur instrument (BD Biosciences).

[3] = molecular target: T1, Cathepsin V (Homo sapiens, UniProt O60911); experiment: Determination of relative inhibition, substrate Z-Phe-Arg-AMC; format: biochemical; settings: inhibitor 50 μM; substrate 2 μM; mean ± SD (n = 2); read-out: Cathepsin V Ri (%) relative inhibition
T1 construct: made in house; host or cells: Pichia pastoris
Experimental: (§1) Human recombinant cathepsin V was expressed in Pichia Pastoris, and human recombinant cathepsin L was expressed in Escherichia coli, as reported, [51]. To determine the activities of cathepsins V and L, 100 mM acetate buffer (pH 5.5), containing 0.1 % PEG 8000 (Sigma-Aldrich, St. Louis, MO, USA), 5 mM cysteine, and 1.5 mM EDTA was used. Prior to the assay, the enzyme was activated in the assay buffer for 5 min at 37 °C.
(§2) The effect of the inhibitors on cathepsin V and L activity was determined using the substrate Z-Phe-Arg-AMC (Bachem, Bubendorf, Switzerland). The reaction was initiated by adding 90 μL of the activated enzyme (final concentration 2.5 ng/mL and 0.02 nM for cathepsins V and L, respectively) to the wells of a black microtiter plate containing 5 μL of substrate (with a final concentration 2 μM) and 5 μL of inhibitor (with a final concentration of 50 μM). The formation of fluorescent degradation products during the reaction was monitored continuously at 460 nm ± 10 nm with excitation at 380 nm ± 20 nm at 37 °C on a Tecan Infinite M1000 (Mannedorf, Switzerland) spectrofluorometer. All assay mixtures contained 5 % (v/v) DMSO. To prevent false-positive inhibition due to the formation of compound aggregates, 0.01 % Triton X-100 was used. All measurements were performed in triplicate and repeated at least twice. Relative inhibition was calculated using the following equation: relative inhibition (%) = 100(1- vi/vo), where vi and vo denote the reaction velocities in the presence and absence of the inhibitor, respectively.

[4] = molecular target: T2, human recombinant cathepsin L (Homo sapiens, UniProt P07711); experiment: as above; format: biochemical; settings: inhibitor 50 μM; substrate 2 μM; mean ± SD (n = 2); read-out: Cathepsin L Ri (%) relative inhibition
T2 construct: made in house; host or cells: Escherichia coli
Experimental: as §1, §2

[5] = molecular target: T1, Cathepsin V; experiment: Determination of Ki values and mode of inhibition; format: biochemical; settings: for fold lower inhibition constant for cathepsin V than cathepsin L: selectivity cathepsin V vs cathepsin L
Experimental: as §1
(§3) Inhibition constants were calculated from reaction velocities measured at three substrate concentrations (0.5, 1, and 4 μM) in the presence of inhibitors at seven concentrations (0, 20, 40, 60, 80, 100, and 200 µM). The reaction was initiated by adding 90 μL of enzyme at final concentrations of 2.5 ng/mL and 0.02 nM for cathepsins V and L, respectively, to the wells of a black microtiter plate containing 5 μL of substrate and 5 μL of inhibitor. To evaluate cathepsin V and L activity, the substrate Z-Phe-Arg-AMC was used. The formation of the fluorescent degradation products was monitored as described above. All assay mixtures contained 5 % (v/v) DMSO. All measurements were performed in duplicates and repeated at least twice. The SigmaPlot® 12, Enzyme Kinetics Module™ 1.3 was used to calculate Ki values.

[6] = molecular target: T2, human recombinant cathepsin L; experiment: Determination of Ki values and mode of inhibition; format: biochemical
Experimental: as §1, §3

[7] = molecular target: T1, Cathepsin V; experiment: Determination of binding reversibility (dilution method); format: biochemical; settings: inhibitor 100 μM, cathepsin V 500 ng/ml
Experimental: Binding reversibility was determined according to the dilution method, which measures the recovery of enzymatic activity after rapid dilution of the enzyme-inhibitor complex. Cathepsin V (500 ng/ml) was incubated in the assay buffer with the inhibitor (100 μM). Half of the reaction mixture was immediately diluted 100-fold with the assay buffer and added to the wells of a black microplate containing 5 μL of substrate (at a final concentration of 2 μM), and the activity was measured. The other half of the reaction mixture was incubated for 2 h before it was diluted 100-fold, and then the activity was measured. The assay was performed in triplicates and repeated at least two times.

T1 sequence (O60911 114-334): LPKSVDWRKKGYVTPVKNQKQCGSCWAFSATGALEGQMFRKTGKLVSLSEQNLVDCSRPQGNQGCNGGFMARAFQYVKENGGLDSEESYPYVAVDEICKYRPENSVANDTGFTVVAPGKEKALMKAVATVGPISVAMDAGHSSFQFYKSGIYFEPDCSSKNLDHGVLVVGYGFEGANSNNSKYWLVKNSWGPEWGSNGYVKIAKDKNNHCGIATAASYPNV
T2 sequence (P07711 114-333): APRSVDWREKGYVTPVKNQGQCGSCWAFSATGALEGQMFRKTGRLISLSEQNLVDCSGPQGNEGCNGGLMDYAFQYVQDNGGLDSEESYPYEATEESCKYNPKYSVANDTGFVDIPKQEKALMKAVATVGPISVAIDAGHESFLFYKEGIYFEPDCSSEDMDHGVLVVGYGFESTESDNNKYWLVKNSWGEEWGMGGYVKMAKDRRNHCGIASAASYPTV

Row | Structure (SMILES) | inhibition at 50 µM [3] | inhibition at 50 µM [4] | mode of inhibition of cathepsin V [5] | Ki ([5]; mean ± SD (n = 2)) | mode of inhibition of cathepsin L [6] | Ki ([6]; mean ± SD (n = 2)) | Cathepsin V Ki (µM) ([5]; mean ± SD (n = 2)) | Cathepsin L Ki ([6]; mean ± SD (n = 2)) | Cathepsin L Ki′ ([6]; mean ± SD (n = 2)) | Cathepsin V Ki′ (µM) ([5]; mean ± SD (n = 2)) | fold lower inhibition constant for cathepsin V than cathepsin L [5] | Cathepsin V Ki′ ([5]; mean ± SD (n = 2)) | effect on cell proliferation (relative CFSE fluorescence intensity vs DMSO) [1] | effect on degradation of elastin-FITC compared to control cells [2] | binding reversibility: cathepsin V activity after 2 h incubation and 100-fold rapid dilution [7] | Cathepsin L Ki′ (µM) ([6]; mean ± SD (n = 2)) | decrease of elastin-FITC degradation [2]
1 | CN(C)C(=O)[C@H](Cc1ccccc1)NC(=O)[C@H]1O[C@@H]1C(=O)NCCc1ccccn1 [CLIK-148, reference compound] |  |  |  |  |  |  |  |  |  |  |  |  | no effects on cell proliferation | did not decrease |  |  | 
2 | O=C(Nc1nc2c(s1)CN(Cc1ccccc1)CC2)c1cccc2ccccc12 [Compound 5, N-(5-benzyl-4,5,6,7-tetrahydrothiazolo[5,4-c]pyridin-2-yl)-1-naphthamide] | -5.8 ± 7% | 30.3 ± 5.5% |  |  | uncompetitive |  | no inhibition | 11.2 ± 0.1 µM | 11.2 ± 0.1 µM |  |  |  |  |  | reversible inhibition; also recorded: restored | 11.2 ± 0.1^e µM | 
3 | O=C(NCC1CCN(C(=O)Oc2ccccc2)CC1)NC(c1ccccc1)c1ccccc1 [Compound 42, Phenyl 4-((3-benzhydrylureido)methyl)piperidine-1-carboxylate] | 21.6 ± 4.6% | 3.5 ± 3.1% | noncompetitive | 156 ± 3.4 µM | noncompetitive | 319 ± 28.6 µM |  |  |  | 155.8 ± 3.4^e µM | more than 2 fold |  |  |  | reversible; also recorded: restored | 319.2 ± 28.6^e µM | 
4 | CC(C)C[C@H](NC(=O)N1CCOCC1)C(=O)N[C@H](/C=C/S(=O)(=O)c1ccccc1)CCc1ccccc1 [LHVS, morpholinurea-leucine-homophenylalanine-vinylsulfone-phenyl, reference compound] |  |  |  |  |  |  |  |  |  |  |  |  | no effects on cell proliferation | did not decrease |  |  | 
5 | CC(C)CC(=O)N[C@H](C(=O)N[C@H](C(=O)N[C@@H](CC(C)C)[C@@H](O)CC(=O)N[C@@H](C)C(=O)N[C@@H](CC(C)C)[C@@H](O)CC(=O)O)C(C)C)C(C)C [pepstatin] (Isovaleryl-VV[Sta]A[Sta]-OH) |  |  |  |  |  |  |  |  |  |  |  |  | no effects on cell proliferation |  |  |  | 

Second part, led by results:

Row | inhibition at 50 µM [3] | inhibition at 50 µM [4] | mode of inhibition of cathepsin V [5] | Ki ([5]; mean ± SD (n = 2)) | mode of inhibition of cathepsin L [6] | Ki ([6]; mean ± SD (n = 2)) | Cathepsin V Ki (µM) ([5]; mean ± SD (n = 2)) | Cathepsin L Ki ([6]; mean ± SD (n = 2)) | Cathepsin L Ki′ ([6]; mean ± SD (n = 2)) | Cathepsin V Ki′ (µM) ([5]; mean ± SD (n = 2)) | fold lower inhibition constant for cathepsin V than cathepsin L [5] | Cathepsin V Ki′ ([5]; mean ± SD (n = 2)) | Structure (SMILES) | effect on cell proliferation (relative CFSE fluorescence intensity vs DMSO) [1] | effect on degradation of elastin-FITC compared to control cells [2] | binding reversibility: cathepsin V activity after 2 h incubation and 100-fold rapid dilution [7] | Cathepsin L Ki′ (µM) ([6]; mean ± SD (n = 2)) | decrease of elastin-FITC degradation [2]
6 | > 20% | 23.5 ± 2.2% | competitive | 352 ± 78.6 µM | competitive | 84.3 ± 4 µM |  |  |  |  |  |  | CC(=O)c1cccc(NC(=O)c2cnc3sccn3c2=O)c1 [Compound 4, N-(3-acetylphenyl)-5-oxo-5H-thiazolo[3,2-a]pyrimidine-6-carboxamide] |  |  | reversible inhibition |  | 
7 |  | 83.7 ± 1% | competitive | 8 ± 0.02 µM | competitive | 9.9 ± 0.9 µM |  |  |  |  |  |  | CCCNC(=O)[C@H]1O[C@@H]1C(=O)N[C@H](C(=O)N1CCC[C@@H]1C(=O)OC)[C@@H](C)CC [Compound 25, Methyl ((2S,3S)-3-(propylcarbamoyl)oxirane-2-carbonyl)-L-isoleucyl-D-prolinate] |  |  | irreversible; also recorded: completely blocked |  | 12.6 ± 4.8%
8 | > 20% | 22.6 ± 5.1% | noncompetitive | 68.3 ± 4.6 µM | competitive | 249 ± 29.8 µM |  |  |  | 68.3 ± 4.6 ^g µM | more than 3 fold |  | Cc1cc(OCc2ccccc2)c(C(=O)C2OC2c2cc3ccccc3o2)cc1C (centres unmarked) [Compound 27, (3-(Benzofuran-2-yl)oxiran-2-yl)(2-(benzyloxy)-4,5-dimethylphenyl)methanone] |  |  | tight-binding or irreversible; also recorded: only partially restored |  | 7.1 ± 2.7%
9 | 27.6 ± 8.7% | 12.4 ± 0.7% | uncompetitive |  | competitive | 454 ± 69.1 µM |  |  |  | 21.2 ± 2.0^f µM | 21 fold | 21.2 ± 2.0 µM | O=C(c1ccccc1OCc1ccccc1)C1OC1c1csc(-c2ccccc2)n1 (centres unmarked) [Compound 40, (2-(Benzyloxy)phenyl)(3-(2-phenylthiazol-4-yl)oxiran-2-yl)methanone] |  |  | reversible; also recorded: restored |  | 
